# Experimental data published in ChEMBL document CHEMBL6153028, “Understanding the synergistic sensitization of natural products and antibiotics: An effective strategy to combat MRSA” (2025).
# Tests used:
# Format in all cases: functional
# [1] = test system: Staphylococcus aureus; assay: Synergistic antimicrobial activity against methicillin-resistant Staphylococcus aureus CCARM 3089 assessed as fractional inhibitory concentration index in presence of ciprofloxacin incubated for 24 hrs by checkerboard assay
# [2] = test system: Staphylococcus aureus; assay: Synergistic antimicrobial activity against methicillin resistant Staphylococcus aureus assessed as fractional inhibitory concentration index incubated for 24 hrs in presence of Norfloxacin by checkerboard assay
# [3] = test system: Staphylococcus aureus; assay: Synergistic antimicrobial activity against methicillin-resistant Staphylococcus aureus assessed as fractional inhibitory concentration index incubated for 24 hrs in presence of ampicillin by checkerboard assay
# [4] = test system: Staphylococcus aureus; assay: Synergistic antimicrobial activity against methicillin resistant Staphylococcus aureus assessed as fractional inhibitory concentration index incubated for 24 hrs in presence of rifampicin by checkerboard assay
# [5] = test system: Staphylococcus aureus; assay: Synergistic antimicrobial activity against methicillin resistant Staphylococcus aureus assessed as fractional inhibitory concentration index incubated for 24 hrs in presence of daptomycin by checkerboard assay
# [6] = test system: Staphylococcus aureus; assay: Synergistic antimicrobial activity against methicillin resistant Staphylococcus aureus assessed as fractional inhibitory concentration index incubated for 24 hrs in presence of oxytetracycline by checkerboard assay
# [7] = test system: Staphylococcus aureus; assay: Synergistic antimicrobial activity against methicillin resistant Staphylococcus aureus assessed as fractional inhibitory concentration index incubated for 24 hrs in presence of linezolid by checkerboard assay
# [8] = test system: Staphylococcus aureus; assay: Synergistic antimicrobial activity against methicillin resistant Staphylococcus aureus assessed as fractional inhibitory concentration index incubated for 24 hrs in presence of Oxacillin by checkerboard assay
# [9] = test system: Staphylococcus aureus; assay: Synergistic antimicrobial activity against methicillin-resistant Staphylococcus aureus assessed as fractional inhibitory concentration index in presence of levofloxacin by checkerboard assay
# [10] = test system: Staphylococcus aureus; assay: Synergistic antimicrobial activity against methicillin-resistant Staphylococcus aureus assessed as fractional inhibitory concentration index in presence of chloramphenicol incubated for 24 hrs by checkerboard assay
# [11] = test system: Staphylococcus aureus; assay: Synergistic antimicrobial activity against methicillin-resistant Staphylococcus aureus assessed as fractional inhibitory concentration index in presence of vancomycin by checkerboard assay
# [12] = test system: Staphylococcus aureus; assay: Synergistic antibacterial activity against methicillin resistant Staphylococcus aureus assessed as fractional inhibitory concentration index in presence of ampicillin
# [13] = test system: Staphylococcus aureus; assay: Synergistic antibacterial activity against methicillin resistant Staphylococcus aureus assessed as fractional inhibitory concentration index in presence of ceftriaxone
# [14] = test system: Staphylococcus aureus; assay: Synergistic antimicrobial activity against methicillin-resistant Staphylococcus aureus assessed as fractional inhibitory concentration index in presence of minocycline incubated for 24 hrs by checkerboard assay
# [15] = test system: Staphylococcus aureus; assay: Synergistic antimicrobial activity against methicillin-resistant Staphylococcus aureus assessed as fractional inhibitory concentration index in presence of gentamicin incubated for 24 hrs by checkerboard assay
# [16] = test system: Staphylococcus aureus; assay: Synergistic antibacterial activity against methicillin resistant Staphylococcus aureus assessed as fractional inhibitory concentration index in presence of ampicillin incubated for 24 hrs by checkerboard assay
# [17] = test system: Staphylococcus aureus; assay: Synergistic antibacterial activity against methicillin resistant Staphylococcus aureus assessed as fractional inhibitory concentration index in presence of penicillin incubated for 24 hrs by checkerboard assay
# [18] = test system: Staphylococcus aureus; assay: Synergistic antibacterial activity against methicillin resistant Staphylococcus aureus assessed as fractional inhibitory concentration index in presence of oxacillin incubated for 24 hrs by checkerboard assay
# [19] = test system: Staphylococcus aureus; assay: Antibacterial activity against methicillin-resistant Staphylococcus aureus assessed as reduction in microbial growth by CLSI based broth microdilution method
# [20] = test system: Staphylococcus aureus; assay: Synergistic antimicrobial activity against Staphylococcus aureus DSM 1104 planktonic cells assessed as fractional inhibitory concentration index in presence of gentamicin by checkerboard assay
# [21] = test system: Staphylococcus aureus; assay: Synergistic antimicrobial activity against Staphylococcus aureus DSM 1104 planktonic cells assessed as fractional inhibitory concentration index in presence of oxacillin by checkerboard assay
# [22] = test system: Staphylococcus aureus; assay: Synergistic antimicrobial activity against methicillin-resistant Staphylococcus aureus CCARM 3089 assessed as fractional inhibitory concentration index in presence of pencillin incubated for 24 hrs by checkerboard assay
# [23] = test system: Staphylococcus aureus; assay: Synergistic antibacterial activity against methicillin resistant Staphylococcus aureus assessed as fractional inhibitory concentration index in presence of penicillin by checkerboard assay
# [24] = test system: Staphylococcus aureus; assay: Synergistic antibacterial activity against methicillin resistant Staphylococcus aureus assessed as fractional inhibitory concentration index in presence of erythromycin incubated for 24 hrs by checkerboard assay
# [25] = test system: Staphylococcus aureus; assay: Synergistic antibacterial activity against methicillin resistant Staphylococcus aureus clinical isolate 003 assessed as fractional inhibitory concentration in presence of norfloxacin
# [26] = test system: Staphylococcus aureus; assay: Synergistic antibacterial activity against […] Staphylococcus aureus ATCC 29213 assessed as fractional inhibitory concentration index incubated for 24 hrs in presence of pencillin by checkerboard assay
# [27] = test system: Staphylococcus aureus; assay: Synergistic antibacterial activity against […] Staphylococcus aureus ATCC 29213 assessed as fractional inhibitory concentration index incubated for 24 hrs in presence of ciprofloxacin by checkerboard assay
# [28] = test system: Staphylococcus aureus; assay: Synergistic antibacterial activity against […] Staphylococcus aureus ATCC 29213 assessed as fractional inhibitory concentration index incubated for 24 hrs in presence of amoxicillin by checkerboard assay
compound,measurement,setting,value
COc1cc(CNC(=O)CCCC/C=C/C(C)C)ccc1O [CAPSAICIN],fractional inhibitory concentration index (FICI),[1],0.18
Oc1ccc([C@H]2Oc3cc(O)cc4c3[C@@H]2c2cc(O)cc3c2[C@H](c2cc(O)cc5c2[C@H]4[C@@H](c2ccc(O)cc2)O5)[C@@H](c2ccc(O)cc2)O3)cc1,fractional inhibitory concentration index (FICI),[2],<0.5
same,fractional inhibitory concentration index (FICI),[3],<0.5
same,fractional inhibitory concentration index (FICI),[4],<0.5
CC[C@@H]1CC[C@@]2(C)C(C)=CCC[C@@H]2[C@@]1(C)CCC1=CC(=O)O[C@@H]1O,fractional inhibitory concentration index (FICI),[5],0.32
same,fractional inhibitory concentration index (FICI),[6],0.321
same,fractional inhibitory concentration index (FICI),[7],0.34
same,fractional inhibitory concentration index (FICI),[8],0.223
COc1c2ccoc2c(OC)c2oc(=O)ccc12 [ISOPIMPINELLIN],fractional inhibitory concentration index (FICI),[9],<0.5
same,fractional inhibitory concentration index (FICI),[10],<0.5
same,fractional inhibitory concentration index (FICI),[11],<0.5
O=c1cc(-c2ccc(O)cc2)oc2cc(O)cc(O)c12 [APIGENIN],fractional inhibitory concentration index (FICI),[12],0.18
same,fractional inhibitory concentration index (FICI),[13],0.18
COc1c2ccoc2c(OCC=C(C)C)c2oc(=O)ccc12 [PHELLOPTERIN],fractional inhibitory concentration index (FICI),[14],0.5
same,fractional inhibitory concentration index (FICI),[15],<0.5
O=C(/C=C/c1ccc(O)cc1)c1ccc(O)cc1O [ISOLIQUIRITIGENIN],fractional inhibitory concentration index (FICI),[16],0.375
same,fractional inhibitory concentration index (FICI),[17],0.375
same,fractional inhibitory concentration index (FICI),[18],0.312
C=CC(C)(C)c1cc(-c2coc3cc(O)cc(O)c3c2=O)c(CC=C(C)C)c(O)c1O,MIC,[19],12.5 µg/mL
O=C(/C=C/c1ccc(O)cc1)CC(=O)/C=C/c1ccc(O)cc1 [BISDEMETHOXYCURCUMIN],fractional inhibitory concentration index (FICI),[20],0.1
same,fractional inhibitory concentration index (FICI),[21],0.51
Oc1cc(O)cc(Oc2c(O)cc(O)c3c2Oc2c(O)cc4oc5c(Oc6cc(O)cc(O)c6)c(O)cc(O)c5c4c2O3)c1 [PHLOROFUCOFUROECKOL A],fractional inhibitory concentration index (FICI),[22],0.393
O=C1C[C@@H](c2ccc(O)cc2)Oc2cc(O)ccc21 [LIQUIRTIGENIN],fractional inhibitory concentration index (FICI),[16],0.375
same,fractional inhibitory concentration index (FICI),[18],0.372
same,fractional inhibitory concentration index (FICI),[23],0.375
CC(C)=CCC/C(C)=C\C=O,fractional inhibitory concentration index (FICI),[24],<0.5
same,fractional inhibitory concentration index (FICI),[25],<0.5
O=c1cc(-c2ccccc2)oc2cc(O)c(O)c(O)c12 [BAICALEIN],fractional inhibitory concentration index (FICI),[26],0.14
same,fractional inhibitory concentration index (FICI),[27],<0.5
same,fractional inhibitory concentration index (FICI),[28],0.14
